# Laboratory results taken from US20240299446A1 (priority 2023, published 2024).
# “Also recorded” adds a separate entry of the source. Marks after values point to notes of the source that are not given here.
# What was measured:
# [1] = system: ovariectomy (OVX) rats; assay: Change in weight of organs in ovariectomized rats; format: in vivo, Sprague-Dawley rats
# Protocol: 12 week old female SPF Sprague-Dawley rats (body weight: 250 g; n=15) were purchased from the Korean Laboratory Animals Center (Eumseong, South Korea). Breeding conditions were as follows: temperature, 23+3° C.; relative humidity, 55+10%; lighting time, 12 hours (08:00-20:00); ventilation frequency, 10-20 changes/h; illumination, 150-300 lux. The temperature and humidity were measured using a hygrometer in units of time, and there were no variables that could affect the experimental results. The animals were fed normal rodent feed and purified water.
# The experimental animals were randomly divided into three groups. After adaptation, bilateral laparotomy (sham) or bilateral ovariectomy (OVX) was performed on the rats.
# Changes in the body weight and feeding and water intake were measured at a regular interval.
# [2] = system: ovariectomy (OVX) rats; assay: Blood markers  (17β-estradiol, osteocalcin, CTx) in ovariectomized rats; format: in vivo, Sprague-Dawley rats; settings: for blood 17β-estradiol reduction by ovariectomy: OVX rats; for Estradiol: serum 17β-estradiol, 12 weeks after ovariectomy, mean ± SD, 5 rats
# [3] = system: ovariectomy (OVX) rats; assay: Blood biochemical analysis in ovariectomized rats; settings: for bone growth marker ALP: OVX rats, serum
# Protocol: Blood samples were collected at 12 weeks post-surgery. Animals were deprived of food for 16 hours and then anesthetized prior to blood sampling (Zoletile 50, Virbac, Korea). 0.5 mL of blood was collected from the abdominal artery and stored at 4° C. in a refrigerator.
# A portion of the blood was used for hematological experiments, and the remaining blood was centrifuged at 3,000 rpm for 10 minutes to obtain serum. The serum was used for blood biochemical experiments and bone metabolism markers 17β-estradiol, osteocalcin and CTx analysis.
# The parameters measured for blood biochemical analysis (Ciba-Corning 644 Na/K/Cl Analyzer, Ciba-Corning, Medfield, USA) were as follows: alanine aminotransferase (ALT), aspartate aminotransferase (AST), alkaline phosphatase (ALP), blood urea nitrogen (BUN), glucose, triglycerides (TG), total cholesterol (TC), high-density lipoproteins (HDL), low-density lipoproteins (LDL), total proteins (TP), albumin, calcium and phosphorus.
# [4] = system: human colo 205 rectal cancer cells; assay: Rectal cancer animal experiment, Colo205 xenograft model; format: in vivo; settings: for MTV (n) Day 28: median tumor volume; for Deaths NTR: non-treatment-related deaths; for % TGI: percent tumor growth inhibition compared to Group 1 (vehicle), Day 28, 0.83 mg/kg po; for Deaths TR: treatment-related deaths
# Protocol: Using human colo 205 rectal cancer cells as xenograft model, clinical experiments were performed with adenocarcinoma nude mice for 28 days. In this regard, the experimental method and usage are shown in Table 8 (Protocol Design for the Colo205-e347 Study) and Table 9 (Final treatment regimen at completion of the study) below.
# [5] = system: ovariectomy (OVX) rats; assay: Femur bone mineral density (DEXA), breaking force and mineral content in ovariectomized rats; format: in vivo, Sprague-Dawley rats; settings: for BMD: femur
# Protocol: Using dual energy X-ray absorptionmetry (DEXA; Prodigy Advance, Donga imaging, Korea), the bone mineral density (BMD) of the femur was measured. Immediately after BMD measurement, the femur was subjected to mechanical test at room temperature using a material testing machine (MZ500D; Maruto, Tokyo, Japan). For stabilization, the mid-diaphysis of the thigh was placed on two supports at an interval of 4 mm on a test device. A three-point bending test was performed in front and rear directions at the midpoint between the two supports. Breaking force was measured using software (CTR win, Ver. 1.05) to measure bone strength. […] Then, the thigh was placed at 800° C. for 16 hours, and the weight of the ash was measured. […] Calcium and phosphorus contents were measured using an atomic absorption spectrophotometer (PerkinElmer; A Analyst 100 Spectrophotometer, Boston, USA).
# [6] = system: ovariectomy (OVX) rats; assay: Blood markers  (17β-estradiol, osteocalcin, CTx) in ovariectomized rats; format: in vivo, Sprague-Dawley rats; settings: for C-terminal telopeptide: serum CTx
# Protocol: Osteocalcin levels were measured using a sandwich ELISA kit (Biomedical Technologies Inc., Stoughton, USA), while CTx levels were measured using a serum RatLaps ELISA kit (IDS Inc., Fountain Hills, USA).
# [7] = system: ovariectomy (OVX) rats; assay: Hematological analysis in ovariectomized rats; format: in vivo, Sprague-Dawley rats
# Protocol: Blood samples were collected at 12 weeks post-surgery.
# Hematological experiments were performed using T-540 Coulter Counter (Coulter Electronics Inc., Hialeah, USA) and ADVIA 120 Hematology System (Bayer Healthcare LLC, Tarrytown, USA). White blood cells (WBCs), differential leukocyte counts, hematocrit, red blood cells (RBCs), mean corpuscular volume (MCV), mean corpuscular hemoglobin (MCH), mean corpuscular hemoglobin concentration (MCHC), and platelet count were subjected to analysis, respectively.
# [8] = system: multiple myeloma (MM); assay: Multiple myeloma animal experiment; format: in vivo, 5TGM1-grafted NSG mice
# [9] = OVX rats, treatment for 12 weeks after ovariectomy, mean ± SD, 5 rats
# [10] = serum at 12 weeks post-surgery, mean ± SD, 5 rats
# [11] = femur ash, reduced by ovariectomy
# [12] = DEXA, treatment for 12 weeks after ovariectomy, mean ± SD, 5 rats
# [13] = OVX rats, increased after ovariectomy
# [14] = 12 weeks after ovariectomy, mean ± SD, 5 rats
# [15] = serum, 12 weeks after ovariectomy, mean ± SD, 5 rats
# [16] = blood at 12 weeks post-surgery, mean ± SD, 5 rats
substance,measurement,setting,value
"Sigma Anti-bonding Molecule Calcium Carbonate [SAC, reference compound]",Adrenal gland Left weight,[1]; [9],0.0094 ± 0.0014 g
same,Adrenal gland Right weight,[1]; [9],0.0094 ± 0.0014 g
same,Body weight,[1]; [9],371.36 ± 9.97 g
same,Brain weight,[1]; [9],0.5526 ± 0.02
same,Femur Left weight,[1]; [9],0.2935 ± 0.02 g
same,Femur Right weight,[1]; [9],0.2902 ± 0.02 g
same,Kidney: Left weight,[1]; [9],0.2687 ± 0.01 g
same,Kidney: Right weight,[1]; [9],0.2626 ± 0.02 g
same,Liver weight,[1]; [9],2.1820 ± 0.15 g
same,Pituitary weight,[1]; [9],4.2 ± 1 mg
same,Spleen weight,[1]; [9],0.1856 ± 0.02 g
same,Uterus weight,[1]; [9],0.0444 ± 0.02 g
same,Vagina weight,[1]; [9],0.0575 ± 0.02 g
same,blood 17β-estradiol reduction by ovariectomy,[2],quite recovered
same,Estradiol,[2],4.217 ± 0.247^a pg/ml
same,bone growth marker ALP,[3],recovered to a normal level
same,ALP,[3]; [10],108.2 ± 20.7 IU/l
same,Albumin,[3]; [10],2.7 ± 0.1 g/dL
same,BUN,[3]; [10],9.2 ± 2.4 mg/dL
same,GOT,[3]; [10],148.0 ± 30.4 IU/l
same,GPT,[3]; [10],22.4 ± 4.0 IU/l
same,Glucose,[3]; [10],112.4 ± 7.7 mg/dL
same,HDL,[3]; [10],23.8 ± 5.2 mg/dL
same,LDL-C,[3]; [10],8.0 ± 5.2 mg/dL
same,Phosphorus,[3]; [10],4.1 ± 0.6 mg/dL
same,TC,[3]; [10],73.0 ± 17.3 mg/dL
same,TG,[3]; [10],20.6 ± 7.7 mg/dL
same,TP,[3]; [10],4.7 ± 0.2
same,calcium,[3]; [10],6.7 ± 0.4 mg/dL
same,Mean BW Nadir,"[4]; lowest group mean body weight as % change from Day 1, — indicates no decrease in mean body weight was observed",−0.4% Day 2
same,MTV (n) Day 28,[4]; 0.83 mg/kg po,896 (9) mm^3
same,Deaths NTR,[4]; 0.83 mg/kg po,1
same,Regressions CR,"[4]; number of complete regressions, 0.83 mg/kg po",0
same,Regressions PR,"[4]; number of partial regressions, 0.83 mg/kg po",0
same,% TGI,[4],4%
same,Deaths TR,[4]; 0.83 mg/kg po,0
same,Regressions TFS,"[4]; tumor free survivors at end of study, 0.83 mg/kg po",0
same,calcium,[5]; [11],not significantly different from the Sham group
same,BMD,[5]; [12],0.228 ± 0.012 g/cm²
same,C-terminal telopeptide / CTx,[6]; [13],quite reduced
same,osteocalcin,[6]; [13],considerably reduced
same,C-terminal telopeptide,[6]; [14],4.360 ± 0.495^a ng/ml
same,osteocalcin,[6]; [15],3.558 ± 0.154^ac ng/mL
same,Basophils,[7]; [16],0.02 ± 0.04 9%
same,Eosinophils,[7]; [16],5.04 ± 3.88%
same,Hematocrit,[7]; [16],43.94 ± 2.18%
same,Lymphocytes,[7]; [16],70.36 ± 8.78%
same,Mean corpuscular hemoglobin,[7]; [16],30.50 ± 0.75 pg
same,Mean corpuscular hemoglobin concentration,[7]; [16],57.14 ± 0.76 g/dL
same,Mean corpuscular volume,[7]; [16],53.44 ± 1.24 fL
same,Monocytes,[7]; [16],2.50 ± 1.44%
same,Neutrophils,[7]; [16],21.21 ± 6.19%
same,Platelet,[7]; [16],1297.0 ± 91.27 10^3/mm^3
same,Red blood cell,[7]; [16],8.23 ± 0.55 10^6/µL
same,White blood cell,[7]; [16],4.84 ± 1.17 10^3/μl
Sigma Anti-bonding Molecule Calcium gluconate [SAC gluconate],weights of the organs,[1]; OVX rats,does not significantly affect the weights of the organs
same,Adrenal gland Left weight,[1]; [9],0.0098 ± 0.0014 g
same,Adrenal gland Right weight,[1]; [9],0.0098 ± 0.0014 g
same,Brain weight,[1]; [9],0.6126 ± 0.02
same,Femur Left weight,[1]; [9],0.3335 ± 0.02 g
same,Femur Right weight,[1]; [9],0.3302 ± 0.02 g
same,Kidney: Left weight,[1]; [9],0.2977 ± 0.01 g
same,Kidney: Right weight,[1]; [9],0.2926 ± 0.02 g
same,Liver weight,[1]; [9],2.5220 ± 0.15 g
same,Pituitary weight,[1]; [9],4.3 ± 1 mg
same,Spleen weight,[1]; [9],0.2056 ± 0.02 g
same,Uterus weight,[1]; [9],0.0524 ± 0.02 g
same,Vagina weight,[1]; [9],0.0665 ± 0.02 g
same,weights of the reproductive organs (uterus and vagina),[1]; reduced by ovariectomy,not restored
same,blood 17β-estradiol reduction by ovariectomy,[2],quite recovered
same,Estradiol,[2],4.417 ± 0.347^a pg/ml
same,bone growth marker ALP,[3],recovered to a normal level
same,ALP,[3]; [10],108.5 ± 21.7 IU/l
same,Albumin,[3]; [10],2.8 ± 0.1 g/dL
same,BUN,[3]; [10],9.5 ± 2.3 mg/dL
same,GOT,[3]; [10],158.0 ± 32.4 IU/l
same,GPT,[3]; [10],20.4 ± 4.5 IU/l
same,Glucose,[3]; [10],110.4 ± 8.7 mg/dL
same,HDL,[3]; [10],22.8 ± 6.2 mg/dL
same,LDL-C,[3]; [10],8.1 ± 4.2 mg/dL
same,Phosphorus,[3]; [10],4.2 ± 0.3 mg/dL
same,calcium,[3]; [10],6.8 ± 0.3 mg/dL
same,tumor growth (FIG. 4),[4]; Colo205 xenograft mice,tumor growth was slowed down after 12 days
same,tumor growth and size of tumor (FIG. 5),[4]; Colo205 xenograft mice,tumor growth became dull and a size of tumor was reduced after 2 or 3 weeks from the dose
same,MTV (n) Day 28,[4]; 0.83 mg/kg po,864 (10) mm^3
same,Deaths NTR,[4]; 0.83 mg/kg po,0
same,% TGI,[4],8%
same,Deaths TR,[4]; 0.83 mg/kg po,0
same,extension of survival versus control,"[8]; 80 mg/kg orally 3 times per day, 83 versus 58 days",43%
same,survival after tumor inoculation,"[8]; 80 mg/kg orally 3 times per day, control group survived 58 days",83 days
same,tumor growth (FIG. 8),[8]; text result versus control group,stopped or at least became dull
same,Phosphorus,[5]; [11],completely recovered
same,calcium,[5]; [11],completely recovered
same,BMD,[5]; [12],0.238 ± 0.011 g/cm²
same,BMD,[5]; reduced by ovariectomy,completely recovered; also recorded: improved BMD
same,femoral breaking force,"[5]; three-point bending test, reduced by ovariectomy",completely recovered
same,C-terminal telopeptide / CTx,[6]; [13],also reduced; also recorded: recovered to normal levels
same,osteocalcin,[6]; [13],recovered to normal levels
same,C-terminal telopeptide,[6]; [14],4.340 ± 0.395^a ng/ml
same,osteocalcin,[6]; [15],3.458 ± 0.254^ac ng/mL
same,Eosinophils,[7]; after ovariectomy,significantly increased
same,Basophils,[7]; [16],0.03 ± 0.04 9%
same,Eosinophils,[7]; [16],5.06 ± 2.88%
same,Hematocrit,[7]; [16],44.94 ± 1.18%
same,Lymphocytes,[7]; [16],73.36 ± 3.78%
same,Mean corpuscular hemoglobin,[7]; [16],32.50 ± 1.75 pg
same,Mean corpuscular hemoglobin concentration,[7]; [16],57.54 ± 1.76 g/dL
same,Mean corpuscular volume,[7]; [16],54.44 ± 1.24 fL
same,Monocytes,[7]; [16],2.60 ± 1.04%
same,Neutrophils,[7]; [16],22.21 ± 5.19%
same,Platelet,[7]; [16],1397.0 ± 81.27 10^3/mm^3
same,Red blood cell,[7]; [16],8.33 ± 0.45 10^6/µL
same,White blood cell,[7]; [16],4.94 ± 2.17 10^3/μl
